These results are taken from patent US9549560B2, “Pesticidal compositions and related methods” (DOW AGROSCIENCES LLC, priority 2013, dated 2017).

The test system of experiment [1] is Green Peach Aphid (Myzus persicae). Put plainly: Bioassay for Green Peach Aphid (GPA) (MYZUPE), foliar spray on cabbage seedlings. The note with it: 72 h, 200 ppm foliar spray, graded after three days, Abbott corrected % control, read-out: % Control (or Mortality) rating, GPA. Type of experiment: in vivo. As for the experimental part:
Cabbage seedlings grown in 3-inch pots, with 2-3 small (3-5 cm) true leaves, were used as test substrate. The seedlings were infested with 20-50 GPA (wingless adult and nymph stages) one day prior to chemical application. Four pots with individual seedlings were used for each treatment. Test compounds (2 mg) were dissolved in 2 mL of acetone/methanol (1:1) solvent, forming stock solutions of 1000 ppm test compound. The stock solutions were diluted 5× with 0.025% Tween 20 in H2O to obtain the solution at 200 ppm test compound. A hand-held aspirator-type sprayer was used for spraying a solution to both sides of […] leaves until runoff. Reference plants (solvent check) were sprayed with the diluent only containing 20% by volume of acetone/methanol (1:1) solvent. Treated plants were held in a holding room for three days at approximately 25° C. and ambient relative humidity (RH) prior to grading. Evaluation was conducted by counting the number of live aphids per plant under a microscope. Percent control was measured by using Abbott's correction formula (W. S. Abbott, “A Method of Computing the Effectiveness of an Insecticide,” J. Econ. Entomol. 18 (1925), pp. 265-267) as follows. Corrected % Control=100*(X−Y)/X
X=No. of live aphids on solvent check plants and
Y=No. of live aphids on treated plants
(§1) Biological Data for Green Peach Aphid (GPA) (MYZUPE) and Sweetpotato Whitefly-crawler (WF) (BEMITA)” (See Table Section).

The test system of experiment [2] is Sweetpotato Whitefly-Crawler (Bemisia tabaci). The experiment can be described thus: Insecticidal test for Sweetpotato Whitefly-Crawler (WF) (BEMITA) in foliar spray assay on cotton plants. The note with it: 216 h, 200 ppm foliar spray, graded after 9 days, Abbott corrected % control, read-out: % Control (or Mortality) rating, WF. The class given is in vivo. On the procedure:
Cotton plants (Gossypium hirsutum) grown in 3-inch pots, with 1 small (4-5 cm) true leaves, were used as test substrate. The plants were infested with 200-400 whitefly eggs 4-5 days prior to chemical application. Four pots with individual plants were used for each treatment. Test compounds (2 mg) were dissolved in 1 mL of acetone solvent, forming stock solutions of 2000 ppm test compound. The stock solutions were diluted 10× with 0.025% Tween 20 in H2O (diluents) to obtain the solution at 200 ppm test compound. A hand-held aspirator-type sprayer was used for spraying a solution to both sides of cotton leaves until runoff. Reference plants (solvent check) were sprayed with the diluent only containing 10% by volume of acetone solvent. Treated plants were held in a holding room for 9 days at approximately 25° C. and ambient relative humidity (RH) prior to grading. Evaluation was conducted by counting the number of live 3-4 nymph stage per plant under a microscope. Percent control was measured by using Abbott's correction formula (W. S. Abbott, “A Method of Computing the Effectiveness of an Insecticide,” J. Econ. Entomol. 18 (1925), pp. 265-267) as follows. Corrected % Control=100*(X−Y)/X
X=No. of live nymphs on solvent check plants and
Y=No. of live nymphs on treated plants.
as §1

For the compound `C#CCN(C(=O)C(C)C[S+]([O-])CCC(F)(F)F)c1cn(-c2ccc[n+]([O-])c2)nc1Cl` (stereo not shown) [FA7, 3-(3-Chloro-4-(2-methyl-N-(prop-2-yn-1-yl)-3-((3,3,3-trifluoropropyl)sulfinyl)propanamido)-1H-pyrazol-1-yl)pyridine 1-oxide], the mortality at 200 ppm in experiment [1] and in experiment [2] was 80 to 100% each time.

Take `C#CCN(C(=O)C(C)CSCCC(F)(F)F)c1cn(-c2ccc[n+]([O-])c2)nc1Cl` (stereo not shown) [FA4, 3-(3-Chloro-4-(2-methyl-N-(prop-2-yn-1-yl)-3-((3,3,3trifluoropropyl)thio)propanamido)-1H-pyrazol-1-yl)pyridine 1-oxide]: the mortality at 200 ppm in experiment [1] and in experiment [2] was 80 to 100% each time.

In the case of `CCN(C(=O)C(C)CSCCC(F)(F)F)c1cn(-c2ccc[n+]([O-])c2)nc1Cl` (stereo not shown) [FA3, 3-(3-Chloro-4-(N-ethyl-2-methyl-3-((3,3,3-trifluoropropyl)thio)propanamido)-1H-pyrazol-1-yl)pyridine 1-oxide], the mortality at 200 ppm in experiment [1] and in experiment [2] was 80 to 100% each time.

Consider `CCN(C(=O)C(C)CS(C)(=O)=O)c1cn(-c2ccc[n+]([O-])c2)nc1Cl` (stereo not shown) [Compound F12, 3-(3-Chloro-4-(N-ethyl-2-methyl-3-(methylsulfonyl)propanamido)-1H-pyrazol-1-yl) 1-oxide], for which the mortality at 200 ppm in experiment [1] and in experiment [2] was 80 to 100% each time.

As for `C#CCN(C(=O)CC[S+]([O-])CCC(F)(F)F)c1cn(-c2ccc[n+]([O-])c2)nc1Cl` (stereo not shown) [Compound P10, 3-(3-chloro-4-(N-(prop-2-yn-1-yl)-3-((3,3,3-trifluoropropyl)sulfinyl)propanamido)-1H-pyrazol-1-yl)pyridine 1-oxide], the mortality at 200 ppm in experiment [1] and in experiment [2] was 80 to 100% in each case.

For `CCN(C(=O)CC[S+]([O-])CCCC(F)(F)F)c1cn(-c2cc(F)c[n+]([O-])c2)nc1Cl` (stereo not shown) [Compound P99, 3-(3-Chloro-4-(N-ethyl-3-((4,4,4-trilluorobutyl)sulfinyl)propanamido)-1H-pyrazol-1-yl)-5-fluoropyridine 1-oxide], the mortality at 200 ppm in experiment [1] and in experiment [2] was 80 to 100% each time.

As to `CCN(C(=O)CC[S+](C)[O-])c1cn(-c2ccc[n+]([O-])c2)nc1Cl` (stereo not shown) [Compound F9, 3-(3-Chloro-4-(N-ethyl-3-(methylsulfinyl)propanamido)-1H-pyrazol-1-yl) pyridine 1-oxide], the mortality at 200 ppm in experiment [1] and in experiment [2] was 80 to 100% each time.

`CCN(C(=O)C(C)C[S+](C)[O-])c1cn(-c2ccc[n+]([O-])c2)nc1Cl` (stereo not shown) [Compound F6]: the mortality at 200 ppm in experiment [1] and in experiment [2] was 80 to 100% each time.

As to `CN(C(=O)CC[S+]([O-])CCC(F)(F)F)c1cn(-c2ccc[n+]([O-])c2)nc1Cl` (stereo not shown) [Compound P2, 3-(3-chloro-4-(N-methyl-3-((3,3,3-trifluoropropyl)sulfinyl)propanamido)-1H-pyrazol-1-yl)pyridine 1-oxide], the mortality at 200 ppm in experiment [1] and in experiment [2] was 80 to 100% throughout.

`CCN(C(=O)C(C)CSCCC(F)(F)F)c1cn(-c2ccc[n+]([O-])c2)nc1C` (stereo not shown) [FA1, 3-(4-(N-Ethyl-2-methyl-3-((3,3,3-trilluoropropyl)thio)propanamido)-3-methyl-1H-pyrazol-1-yl)pyridine 1-oxide]: the mortality at 200 ppm in experiment [1] and in experiment [2] was 80 to 100% in each case.

For the compound `CC(C(=O)N(CC1CC1)c1cn(-c2ccc[n+]([O-])c2)nc1Cl)S(C)(=O)=O` (stereo not shown) [FA14, 3-(3-chloro-4-(N-(cyclopropylmethyl)-2-(methylsulfonyl)propanamido)-1H-pyrazol-1-yl)pyridine 1-oxide], in experiment [1], the mortality (usually the share of the test organisms that died) at 200 ppm was in the range of 80 to 100%.

As for `CCN(C(=O)C(C)S(C)(=O)=O)c1cn(-c2ccc[n+]([O-])c2)nc1Cl` (stereo not shown) [FA13, 3-(3-chloro-4-(N-ethyl-2-(methylsulfonyl)propanamido)-1H-pyrazol-1-yl)pyridine 1-oxide], the mortality at 200 ppm in experiment [1] was 80 to 100%.
